Results on one compound are retold here after PMC6717000 (Biosensors & bioelectronics, 2019).

For orientation: Km means the substrate concentration at which the rate is half of its maximum.

For this assay, the system named is Acid phosphatase from potato (AcP). Kind of assay: phenolCEST MRI of released phenol, initial velocity over […] min. The format is biochemical, Solanum tuberosum. The conditions noted are these: pH 5.0, 37 °C, 10 mM acetate buffer, 10 mM Mg2+.

Regarding `O=P(O)(O)Oc1ccccc1` [PP, phenyl phosphate], the Km came to 3.5 mM.
